Laboratory results reported in the supplement of paper PMC11061612.

Assays:
Assay in all cases: combination Emax (second highest fraction inhibited in the dose matrix, 72 h); higher = more inhibition; extreme values may be limits of the assay
[1] = tested on: BV-173 (Chronic Myelogenous Leukemia)
Method in brief: (§1)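 After 24 hours at 37°C and 5% CO2 in 1536-well plates, cells in DMEM/F12 or RPMI plus 10% FBS received two-drug dose matrices for 72 hours. Viability came from CellTiter-Glo 2.0 luminescence and was scaled as inhibition, anchored at 0 by vehicle wells and at 1 by blank wells. Combination Emax is taken as the second-highest inhibition in the matrix, and Bliss excess as the observed combination effect less EA + EB − EA·EB, with EA and EB the single-agent effects.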

[2] = tested on: HC-1 (Other Blood Carcinomas)
Method in brief: as §1

EW-3 (Ewing's Sarcoma) = tested on: EW-3 (Ewing's Sarcoma)
Method in brief: as §1

[3] = tested on: VMRC-LCD (Lung Adenocarcinoma)
Method in brief: as §1

[4] = tested on: HuP-T3 (Pancreatic Carcinoma)
Method in brief: as §1

[5] = tested on: NCI-H1573 (Lung Adenocarcinoma)
Method in brief: as §1

NH-12 (Neuroblastoma) = tested on: NH-12 (Neuroblastoma)
Method in brief: as §1

[6] = tested on: DG-75 (Burkitt's Lymphoma)
Method in brief: as §1

[7] = tested on: LC4-1 (B-Lymphoblastic Leukemia)
Method in brief: as §1

[8] = tested on: SCC-9 (Oral Cavity Carcinoma)
Method in brief: as §1

[9] = tested on: KP-2 (Pancreatic Carcinoma)
Method in brief: as §1

A704 (Kidney Carcinoma) = tested on: A704 (Kidney Carcinoma)
Method in brief: as §1

[10] = tested on: SNU-C1 (Colorectal Carcinoma)
Method in brief: as §1

[11] = tested on: H-EMC-SS (Chondrosarcoma)
Method in brief: as §1

SMILES | combination Emax [1] | combination Emax [2] | combination Emax (EW-3 (Ewing's Sarcoma)) | combination Emax [3] | combination Emax [4] | combination Emax [5] | combination Emax (NH-12 (Neuroblastoma)) | combination Emax [6] | combination Emax [7] | combination Emax [8] | combination Emax [9] | combination Emax (A704 (Kidney Carcinoma)) | combination Emax [10] | combination Emax [11]
NC1(C(=O)N[C@@H](CCO)c2ccc(Cl)cc2)CCN(c2ncnc3[nH]ccc23)CC1 [Capivasertib] + CCN(CCO)CCCOc1ccc2c(Nc3cc(CC(=O)Nc4cccc(F)c4)[nH]n3)ncnc2c1 [AZD2811] (first compound max 10 µM, 7x7, partner max 1 µM) | 0.915 | 0.629 | 0.595 | 0.59 | 0.249 | 0.323 | 0.728 | 0.606 | 0.905 | 0.275 | 0.132 | 0.324 | 0.588 | 0.488
NC1(C(=O)N[C@@H](CCO)c2ccc(Cl)cc2)CCN(c2ncnc3[nH]ccc23)CC1 [Capivasertib] + COc1nnc2ccc(N3CCC(c4ccc(OCCN5CCN(C)C(=O)[C@H]5C)cc4)CC3)nn12 [AZD5153] (first compound max 10 µM, 7x7, partner max 1 µM) | 0.905 | 0.664 | 0.837 | 0.454 | 0.522 | 0.562 | 0.634 | 0.884 | 0.99 | 0.538 | 0.442 | 0.645 | 0.813 | 0.351
NC1(C(=O)N[C@@H](CCO)c2ccc(Cl)cc2)CCN(c2ncnc3[nH]ccc23)CC1 [Capivasertib] + C[C@@H]1COCCN1C2=NC(=NC(=C2)C3(CC3)[S@](=N)(=O)C)C4=C5C=CNC5=NC=C4 [AZD6738] (first compound max 10 µM, 7x7, partner max 10 µM) | 0.956 | 0.749 | 0.87 | 0.566 | 0.645 | 0.618 | 0.832 | 0.845 | 0.949 | 0.412 | 0.17 | 0.524 | 0.533 | 0.526
NC1(C(=O)N[C@@H](CCO)c2ccc(Cl)cc2)CCN(c2ncnc3[nH]ccc23)CC1 [Capivasertib] + Cn1cnc2c(F)c(Nc3ccc(Br)cc3Cl)c(C(=O)NOCCO)cc21 [Selumetinib] (first compound max 10 µM, 7x7, partner max 10 µM) | 0.718 | 0.601 | 0.24 | 0.248 | 0.464 | 0.495 | 0.585 | 0.398 | 0.575 | 0.723 | 0.454 | 0.434 | 0.703 | 0.797
Cc1nc(Nc2ncc(C(=O)Nc3c(C)cccc3Cl)s2)cc(N2CCN(CCO)CC2)n1 [Dasatinib] + CC(=O)Nc1cccc(-n2c(=O)n(C3CC3)c(=O)c3c(Nc4ccc(I)cc4F)n(C)c(=O)c(C)c32)c1 [Trametinib] (first compound max 2 µM, 7x7, partner max 1 µM) | 0.819 | 0.494 | 0.0371 | 0.163 | 0.868 | 0.707 | 0.644 | 0.316 | 0.244 | 0.856 | 0.712 | 1 | 0.578 | 0.684
COc1cccc2c1C(=O)c1c(O)c3c(c(O)c1C2=O)C[C@@](O)(C(=O)CO)C[C@@H]3O[C@H]1C[C@H](N)[C@H](O)[C@H](C)O1 [Doxorubicin] + Cc1cc2ncnn2cc1Nc1ncc2c(n1)n(C1CCOCC1)c(=O)n2C [AZD7648] (first compound max 1 µM, 7x7, partner max 10 µM) | 0.994 | 0.975 | 0.788 | 0.612 | 0.606 | 0.255 | 0.944 | 0.882 | 1 | 0.411 | 0.513 | 0.176 | 0.407 | 0.957
COc1cc2ncnc(Nc3ccc(F)c(Cl)c3)c2cc1OCCCN1CCOCC1 [Gefitinib] + CC(C)n1c(=O)n(C)c2cnc3cc(F)c(-c4ccc(OCCCN5CCCCC5)nc4)cc3c21 [AZD1390] (first compound max 10 µM, 7x7, partner max 0.3 µM) | 0.391 | 0.387 | 0.254 | 0.0987 | 0.14 | 0.162 | 0.121 | 0.373 | 0.221 | 0.626 | 0.0653 | 0.439 | 0.0654 | 0.201
CS(=O)(=O)CCNCc1ccc(-c2ccc3ncnc(Nc4ccc(OCc5cccc(F)c5)c(Cl)c4)c3c2)o1 [Lapatinib] + C[C@@H](Oc1cc(-c2cnn(C3CCNCC3)c2)cnc1N)c1c(Cl)ccc(F)c1Cl [Crizotinib] (first compound max 10 µM, 7x7, partner max 10 µM) | 0.94 | 0.898 | 0.91 | 0.711 | 0.579 | 0.786 | 0.873 | 0.92 | 0.963 | 0.964 | 0.788 | 0.905 | 0.675 | 0.576
CC(=O)c1c(C)c2cnc(Nc3ccc(N4CCNCC4)cn3)nc2n(C2CCCC2)c1=O [Palbociclib] + CC1(C)CCC(CN2CCN(c3ccc(C(=O)NS(=O)(=O)c4ccc(NCC5CCOCC5)c([N+](=O)[O-])c4)c(Oc4cnc5[nH]ccc5c4)c3)CC2)=C(c2ccc(Cl)cc2)C1 [Venetoclax] (first compound max 10 µM, 7x7, partner max 1 µM) | 0.848 | 0.611 | 0.599 | 0.0618 | 0.187 | 0.284 | 0.592 | 0.705 | 1 | 0.13 | 0.056 | 0.625 | 0.194 | 0.284
